{
  "source": "patent US20260224716A1",
  "about": "“PTH ANALOGS FOR THE TREATMENT OF HYPOPARATHYROIDISM” (priority 2020, published 2026)",
  "key": {"serum calcium [1]": {"test_system": "serum calcium", "assay": "Serum calcium in rats, repeat daily dosing 7 days (Example 13)", "type": "in vivo, Sprague-Dawley rats", "settings": "daily SC 7 days; SEQ ID NO: 77 20 nmol/kg, SEQ ID NO: 87 20 or 40 nmol/kg; returned to initial values after washout", "procedure": "(§1) Female Sprague-Dawley rats were single or double-housed and randomly assigned to four groups (n=5-6 per group) as described in Table 20, and then weighed.\n(§2) After the treatment ceased, the animals were monitored on days 9 and 11 (washout period).\n(§3) Body weight and food intake were measured on days 0, 1, 3, 5 and 7. Ca was measured on days 0, 1, 2, 3, 4, 7, 9 and 11. Pi was determined on the same samples, except for days 9 and 11."}, "[2]": {"assay": "Pharmacokinetics in rats after single subcutaneous dose, LCMS (Example 10)", "settings": "rats", "source_text": "Female Sprague-Dawley rats were randomly distributed among four groups with five or six rats per group. […] Dose volume was based on body weight and recorded prior to dosing."}, "serum phosphate": {"test_system": "serum phosphate", "assay": "Serum phosphate in parathyroidectomized rats, ten daily doses (Example 16)", "type": "in vivo, Sprague-Dawley rats", "settings": "for starting serum phosphate concentration: PTx rats, before first dose", "from_the_text": "(§4) Rats were randomly distributed among 5 groups and injected subcutaneously for ten consecutive days with either vehicle or SEQ ID NO; 87 (10, 25, 40 nmol/kg; n=8). Two separate vehicle treated groups of rats were studied. The first represented control rats surgically managed like the remaining rats, but their parathyroid gland was not removed (sham control). The second vehicle control group represented rats that were surgically managed in the same manner as the SEQ ID NO: 87 treated rats. Following surgery and one week prior to testing all the rats were placed on a defined diet at a specific calcium concentration.\nDetermination of phosphate levels was conducted with sampling at near-identical times to the serum calcium, differing only in the last days of the washout period. […] The starting phosphate level was 7.003 mg/dl, as compared to 11.317 mg/dl in the vehicle control group of the PTx rats. […] The difference between the two control groups was maintained through the course of the experiment. […] Efficacy was fully maintained through observation at Day 10, one day after the last administered dose. […] Twenty-five days after study initiation, all PTx-rats aligned as a group with increased phosphate, as compared to sham control rats."}, "[3]": {"assay": "Pharmacokinetics of SEQ ID 87 in monkeys, single subcutaneous dose (Example 17)", "type": "in vivo, cynomolgus monkeys", "settings": "FIGS. 26A, 26B", "quoted_text": "A total of three monkeys were used at each test dose. The monkeys ranged in age from 2-4 years old at beginning of the study and having a weight of at least 2.5 kg. The dose volume was 0.3 mL/kg. Individual dose volumes were calculated based on the animals' most recently recorded body weight.\nAnimals were not fasted prior to collection. Blood was be collected via the femoral vein (or another appropriate site). Blood samples were maintained at 5±3° C. (wet ice or equivalent) and centrifuged at 5±3° C. within 1 hour of the collection of each blood sample. The resultant plasma was transferred to a tube and then stored under conditions set to maintain −75±15° C. until analysis.\nPharmacokinetic mean concentration-time data was analyzed using non-compartmental methods (Phoenix® WinNonlin® Version 7.0 or higher) based on the route of administration. The following parameters were calculated whenever possible and as data allows: Cmax, Tmax, and AUC. Descriptive statistics were generated using Phoenix WinNonlin."}, "[4]": {"assay": "Plasma drug levels in rats, repeat daily dosing 7 days, LCMS (Example 13)", "type": "in vivo, Sprague-Dawley rats", "procedure": "as §1, §2, §3"}, "[5]": {"assay": "Cleavage half-life / conversion of PTH prodrugs in PBS pH 7.4, 37° C. by LC-MS", "type": "physicochemical", "settings": "for Percentage of prodrug: prodrug in PBS, LC-MS peak areas", "how_it_was_run": "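Prodrugs incubated in PBS pH 7.4 at 37 °C, aliquots sampled over time for LC-MS (10–80% acetonitrile/0.1% TFA gradient). Prodrug and drug quantified by relative peak areas; dissociation rate constant from log prodrug concentration versus time.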"}, "serum calcium [6]": {"test_system": "serum calcium", "assay": "Serum calcium in parathyroidectomized rats, ten daily doses (Example 16)", "type": "in vivo, Sprague-Dawley rats", "settings": "for starting serum calcium concentration: before first dose", "from_the_text": "as §4\n(§5) A 96-well plate spectrophotometer (SpectraMax M5, Molecular Devices) was employed for detection. […] Absorbance (Ab) was measured at 650 nm wavelength. Manufacturer provided linearity up to 15 mg/dL. The serum calcium was measured immediately prior to injection (time 0 hour), followed by 24, 48, 72, and 96 hours."}, "serum calcium [7]": {"test_system": "serum calcium", "assay": "Serum calcium in rats after single subcutaneous dose (Example 10)", "type": "in vivo, Sprague-Dawley rats", "settings": "30 or 60 nmol/kg SC single dose; increase within the physiological range", "procedure": "A 96-well plate spectrophotometer (SpectraMax M5, Molecular Devices) was employed for detection. Serum Ca and Pi were measured on days 0, 1, 2, 4, 5 and 7. Absorbance (Ab) was measured at 650 nm for Ca and 340 nm for Pi. Manufacturer linearity is provided up to 15 mg/dl for Ca and 10 mg/dl for Pi."}, "serum calcium [8]": {"test_system": "serum calcium", "assay": "Serum calcium in parathyroidectomized rats, four daily doses (Example 15)", "type": "in vivo, Sprague-Dawley rats", "settings": "for starting serum calcium concentration: before first dose", "from_the_text": "as §4, with “subcutaneously for four consecutive days” for “subcutaneously for ten consecutive days”, “either vehicle (sterile 0.9% NaCl solution; n=6), or SEQ” for “either vehicle or SEQ”\nas §5"}, "serum calcium [9]": {"test_system": "serum calcium", "assay": "Serum calcium in rats, repeat daily dosing 28 days (Example 14)", "type": "in vivo, Sprague-Dawley rats", "procedure": "Changes in body weight and food intake were also measured.\nBody weight and food intake were measured on Day 0 (immediately prior to peptide administration), 1, 3, 7, 10, 14, 17, 21, 24, 28, 31, and 35. Serum Ca was measured at the start of the experiment and on Days 7, 14, 21, 28, 29, 30, 31, 32 and 34. Blood samples were collected via tail laceration for determination of total Ca in serum using commercially available colorimetric assays."}, "[10]": {"settings": "PTx rats, treatment group 10 nmol/kg"}, "[11]": {"settings": "PTx rats, treatment group 25 nmol/kg"}, "[12]": {"settings": "PTx rats, treatment group 40 nmol/kg"}},
  "data": [
    {"smiles": "CC[C@H](C)[C@H](NC(=O)[C@H](CCC(=O)O)NC(=O)[C@H](CO)NC(=O)[C@@H](NC(=O)[C@H](CO)NC(=O)CN(C)C(=O)[C@H](N)CCCCNC(=O)CC[C@H](NC(=O)COCCOCCNC(=O)COCCOCCNC(=O)CC[C@H](NC(=O)CCCCCCCCCCCCCCCCC(=O)O)C(=O)O)C(=O)O)C(C)C)C(=O)N[C@@H](CCC(N)=O)C(=O)N[C@@H](CC(C)C)C(=O)N[C@@H](CCSC)C(=O)N[C@@H](Cc1c[nH]cn1)C(=O)N[C@@H](CC(N)=O)C(=O)N[C@@H](CC(C)C)C(=O)NCC(=O)N[C@@H](CCCCN)C(=O)N[C@@H](Cc1c[nH]cn1)C(=O)N[C@@H](CC(C)C)C(=O)N[C@@H](CC(N)=O)C(=O)N[C@@H](CO)C(=O)N[C@@H](CCSC)C(=O)N[C@@H](CCC(=O)O)C(=O)N[C@@H](CCCNC(=N)N)C(=O)N[C@H](C(=O)N[C@@H](CCC(=O)O)C(=O)N[C@@H](Cc1c[nH]c2ccccc12)C(=O)N[C@@H](CC(C)C)C(=O)N[C@@H](CCCNC(=N)N)C(=O)N[C@@H](CCCCN)C(=O)N[C@@H](CCCCN)C(=O)N[C@@H](CC(C)C)C(=O)N[C@@H](CCC(N)=O)C(=O)N[C@@H](CC(=O)O)C(=O)N[C@H](C(=O)N[C@@H](Cc1c[nH]cn1)C(=O)N[C@@H](CCCCNC(=O)CC[C@H](NC(=O)COCCOCCNC(=O)COCCOCCNC(=O)CC[C@H](NC(=O)CCCCCCCCCCCCCCCCC(=O)O)C(=O)O)C(=O)O)C(=O)O)C(C)C)C(C)C", "note": "[SEQ ID NO: 87]", "values": [
      {"measurement": "Serum Ca levels during the treatment period", "setting": "serum calcium [1]", "result": "gradually increased"},
      {"measurement": "time of return to baseline value, prodrug", "setting": "[2]; SEQ ID NO: 87 30 nmol/kg SC", "result": "one week"},
      {"measurement": "tolerability", "setting": "[2]; doses where prodrug and drug could be measured by LCMS", "result": "did not adversely affect the rats"},
      {"measurement": "serum phosphate levels versus sham control", "setting": "serum phosphate; PTx rats, 10, 25, 40 nmol/kg daily SC, after seven days", "result": "comparable to sham control rats"},
      {"measurement": "starting serum phosphate concentration", "setting": "serum phosphate; treatment group 10 nmol/kg", "result": 11.412, "unit": "mg/dL"},
      {"measurement": "starting serum phosphate concentration", "setting": "serum phosphate; treatment group 25 nmol/kg", "result": 10.673, "unit": "mg/dL"},
      {"measurement": "starting serum phosphate concentration", "setting": "serum phosphate; treatment group 40 nmol/kg", "result": 8.152, "unit": "mg/dL"},
      {"measurement": "starting serum phosphate, decreased level versus PTx vehicle", "setting": "serum phosphate; high-dose group 40 nmol/kg", "result": 28, "unit": "%"},
      {"measurement": "starting serum phosphate, increase versus PTx vehicle", "setting": "serum phosphate; low-dose group 10 nmol/kg", "result": 1.0, "unit": "%"},
      {"measurement": "starting serum phosphate, decreased level versus PTx vehicle", "setting": "serum phosphate; mid-dose group 25 nmol/kg", "result": 5.7, "unit": "%"},
      {"measurement": "difference of prodrug to drug serum concentration", "setting": "[3]", "result": "~4", "unit": "fold"},
      {"measurement": "daily administrations to reach steady state plasma levels", "setting": "[4]; daily SC dosing", "result": "four"},
      {"measurement": "difference in total concentration of prodrug to drug", "setting": "[4]; seven daily SC injections, FIGS. 19A, 19B", "result": 4, "unit": "fold"},
      {"measurement": "half-life", "setting": "[5]; PBS buffer, pH 7.4, PBS, LCMS over 192 hours, FIG. 10", "result": 112, "unit": "h"},
      {"measurement": "Percentage of prodrug", "setting": "[5]; 0 h", "result": 100, "unit": "%"},
      {"measurement": "Percentage of prodrug", "setting": "[5]; 48 h", "result": 74, "unit": "%"},
      {"measurement": "Percentage of prodrug", "setting": "[5]; 72 h", "result": 62, "unit": "%"},
      {"measurement": "Percentage of prodrug", "setting": "[5]; 120 h", "result": 46, "unit": "%"},
      {"measurement": "Percentage of prodrug", "setting": "[5]; 192 h", "result": 31, "unit": "%"},
      {"measurement": "serum calcium levels versus sham control", "setting": "serum calcium [6]; PTx rats, 10, 25, 40 nmol/kg daily SC, after two days", "result": "virtually identical to sham control rats"},
      {"measurement": "serum calcium levels versus sham control", "setting": "serum calcium [6]; PTx rats, mid and high-dose (25, 40 nmol/kg), four and seven days", "result": "matched or exceeded what was observed in the sham control rats"},
      {"measurement": "starting serum calcium concentration", "setting": "serum calcium [6]; [10]", "result": 4.5, "unit": "mg/dL"},
      {"measurement": "starting serum calcium concentration", "setting": "serum calcium [6]; [11]", "result": 5.028, "unit": "mg/dL"},
      {"measurement": "starting serum calcium concentration", "setting": "serum calcium [6]; [12]", "result": 5.108, "unit": "mg/dL"},
      {"measurement": "starting serum calcium, decreased level versus PTx vehicle", "setting": "serum calcium [6]; treatment group 10 nmol/kg", "result": 3.4, "unit": "%"},
      {"measurement": "starting serum calcium, increased level versus PTx vehicle", "setting": "serum calcium [6]; treatment group 25 nmol/kg", "result": 7.9, "unit": "%"},
      {"measurement": "starting serum calcium, increased level versus PTx vehicle", "setting": "serum calcium [6]; treatment group 40 nmol/kg", "result": 9.6, "unit": "%"},
      {"measurement": "time of peak of serum calcium increase", "setting": "serum calcium [7]", "result": 3, "unit": "days"},
      {"measurement": "serum calcium versus sham control", "setting": "serum calcium [8]; PTx rats, 25 nmol/kg daily SC, 72 hours", "result": "insignificantly different from the sham control rats"},
      {"measurement": "serum calcium versus sham control", "setting": "serum calcium [8]; PTx rats, 40 nmol/kg daily SC, after 48 hours", "result": "slightly exceeding that of the sham control rats"},
      {"measurement": "serum calcium excess over the sham control", "setting": "serum calcium [8]; PTx rats, 40 nmol/kg, […] (72 hours after last dose)", "result": "more than 0.2 nmol/ml"},
      {"measurement": "starting serum calcium concentration", "setting": "serum calcium [8]; [10]", "result": 1.185, "unit": "nmol/µL"},
      {"measurement": "starting serum calcium concentration", "setting": "serum calcium [8]; [11]", "result": 1.354, "unit": "nmol/µL"},
      {"measurement": "starting serum calcium concentration", "setting": "serum calcium [8]; [12]", "result": 1.251, "unit": "nmol/µL"},
      {"measurement": "starting serum calcium, higher level than vehicle treated PTx-rats", "setting": "serum calcium [8]; treatment group 10 nmol/kg", "result": 9.2, "unit": "%"},
      {"measurement": "starting serum calcium, higher level than vehicle treated PTx-rats", "setting": "serum calcium [8]; treatment group 25 nmol/kg", "result": 24.8, "unit": "%"},
      {"measurement": "starting serum calcium, higher level than vehicle treated PTx-rats", "setting": "serum calcium [8]; treatment group 40 nmol/kg", "result": 15.3, "unit": "%"},
      {"measurement": "absolute increase in serum Ca over the course of the study", "setting": "serum calcium [9]; 4 nmol/kg daily SC", "result": 1.356, "unit": "mg/dL"},
      {"measurement": "percentage increase in serum Ca", "setting": "serum calcium [9]; 4 nmol/kg daily SC", "result": 14.7, "unit": "%"},
      {"measurement": "absolute increase in serum Ca over the course of the study", "setting": "serum calcium [9]; 8 nmol/kg daily SC", "result": 1.452, "unit": "mg/dL"},
      {"measurement": "percentage increase in serum Ca", "setting": "serum calcium [9]; 8 nmol/kg daily SC", "result": 16.7, "unit": "%"},
      {"measurement": "absolute increase in serum Ca over the course of the study", "setting": "serum calcium [9]; 12 nmol/kg daily SC", "result": 2.072, "unit": "mg/dL"},
      {"measurement": "percentage increase in serum Ca", "setting": "serum calcium [9]; 12 nmol/kg daily SC", "result": 23, "unit": "%"},
      {"measurement": "general health", "setting": "serum calcium [9]; 4, 8, 12 nmol/kg daily SC", "result": "All animals appeared healthy"}
    ]}
  ]
}
